Measurements taken from patent publication US20260049078A1, “DIFLUORO- AND TRIFLUORO-ACETYL HYDRAZIDES AS SELECTIVE HDAC6 INHIBITORS” (ITALFARMACO S.P.A., priority 2022, published 2026).

Target: zHDAC6-CD2 wt (Danio rerio (Zebrafish) (Brachydanio rerio), UniProt F8W4B7)
Experiment: Isolation of long-lived/tight complex (spin column chromatography with LC-HRMS)
Type: binding
Details: zHDAC6-CD2 wt 1 μM, compound 5 μM, 6 hours, Bio-Spin P-6
Protocol: Rapid chromatography on spin columns coupled to LC-HRMS was used to attempt the isolation of long-lived/tight complexes between HDAC6 and examples 1 and 1-A. zHDAC6-CD2 wt (1 μM) was incubated with 1 (5 μM) or 1-A (also 5 μM) as described before for 6 hours. An aliquot (60 μL) was loaded on a Bio-Spin P-6 Gel Column (Bio-Rad) that had been equilibrated with assay buffer in order to separate the HDAC6-inhibitors complexes from free compounds. After centrifugation to elute the initial fraction containing most of the enzyme, ten 200 μL aliquots were applied and eluted by centrifugation to collect the low molecular weight (free) compounds. Aliquots of the fractions were subjected to LC-HRMS analysis (as described above) for identification and quantitation of 1 and its derivatives.

zHDAC6-CD2 wt, sequence (F8W4B7 entry or part of it del 1-439/del 799-1081 limits assumed): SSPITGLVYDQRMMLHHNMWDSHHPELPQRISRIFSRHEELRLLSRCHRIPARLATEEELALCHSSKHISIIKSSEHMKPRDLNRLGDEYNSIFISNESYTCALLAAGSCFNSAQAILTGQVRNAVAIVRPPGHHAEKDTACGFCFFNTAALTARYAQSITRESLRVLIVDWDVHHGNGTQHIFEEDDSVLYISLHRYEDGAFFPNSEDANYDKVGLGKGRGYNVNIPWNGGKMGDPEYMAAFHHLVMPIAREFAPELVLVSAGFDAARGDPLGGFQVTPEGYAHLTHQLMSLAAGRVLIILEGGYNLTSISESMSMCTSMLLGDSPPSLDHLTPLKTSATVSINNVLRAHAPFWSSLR

- co-elution with the enzyme (fraction 1): behaves as a prodrug
Compound: FC(F)c1nnc(-c2ccc(Cn3cc(-c4ccc(NC5=NCCN5)cc4)nn3)cc2)o1 [Compound 1-A]
